From article PMC6664396, “A golden opportunity: benzofuranone modifications of aurones and their influence on optical properties, toxicity, and potential as dyes” (Beilstein Journal of Organic Chemistry, 2019)

Columns and labels:
[1] = UV–vis spectra in acetonitrile (λmax, extinction coefficient); type: physicochemical; parameters: λmax: unit: nm; details: for dissolution for ε determination: in CH3CN, printed in the ε column
Method: With the desired compounds in hand, their UV–visible spectra were recorded at concentrations between 29 and 44 μM in acetonitrile (Figure 3 and Table 1). While not all substituents were prepared at every position, some interesting trends were observed. Substitution at the 4-position whether halogen or hydroxy afforded essentially identical lambda maxima (390 nm), slighly red-shifted compared to the unsubstituted compound 1. On the other hand, hydroxy groups at the 6-position result in a significant blue shift of this lambda max by roughly 40 nm to around 338 nm, presumably due to their donating effect and conjugation with the carbonyl oxygen. […] On the other hand, substitution at the 7-position had virtually no effect, which is to be expected due to the lack of direct conjugation with the carbonyl as well as the only modest electronic effects of alkyl, chlorine, and bromine. In general, the substituent effects are all fairly modest and result in fairly moderate changes in the extinction coefficient (although hydroxy substitution does definitely increase this value by roughly 50%).

[2] = test system: Hep G2 human liver cancer cells; experiment: Hep G2 cytotoxicity assay (MTT); type: cell-based; parameters: Average % Inhibition: tested at 200 µM; details: for Hep G2 % inhibition: 200 μM concentration of compound, 3 days incubation, MTT readout; for % Inhibition: Hep G2 MTT absorbance relative to vehicle; for Average % Inhibition: average of Triplicates 1-3 (T1, T2, T3), Hep G2 MTT
Method: An initial screening of toxicity was conducted at a fairly high concentration (200 μM) on the present series of compounds using a standard HEP G2 inhibition assay (Table 1). Compared to a currently used yellow dye (tartrazine), the aurones are similar to more toxic. Within the aurone series, though, an interesting pair of trends can be observed. First, all hydroxylated aurones are comparatively more toxic, displaying >50% inhibition at 200 μM. Methyl groups are similarly mostly more toxic. For the halogens, however, location is fairly important, with the 6 or 7 position being much less toxic (similar to tartrazine) and dramatically better than the unsubstituted base compound 1, with the unexpected exception of 7-bromo compound 10. Whether this trend is general or not for aurone compounds is an interesting question for future study.
Hep G2 cytotoxicity assay
Hep G2 human liver cancer cells were cultured in phenol red Dulbecco’s
Modified Eagle Medium (DMEM) with 10% fetal bovine serum (FBS) and 1% Pen-strep (PSG) under 37°C and 5% CO2 atmospheric conditions. The cells were washed with phosphate buffered saline (PBS) and diluted with phenol red free DMEM to a concentration between 200,000 to 250,000 cells/mL. The cells we re distributed in a 96-well plate with each well containing 100 µL of the cell solution and were allowed to settle for 2 hours in the incubator. The cells were then treated with 200 µM of the aurones in DMSO and the known dyes in 10:90 (v:v) DMSO/ultrapure water in triplicates and were left in the incubator for 3 days. The vehicles were used as the negative controls (DMSO for the aurones and 10:90 DMSO:ultrapure water for the known dyes). 20 µL of 5 mg/mL MTT (3-(4,5-dimethylthiazol-2-yl)-2,5-diphenyltetrazolium bromide) was added to each well containing treated cells after the 3-day incubation period and was allowed to settle in the incubator for 3.5 more hours. Finally, the media was removed from the wells and replaced by 100 µL of DMSO to lyse the cells and dissolve the formazan crystals that were formed. The absorbance was then recorded on the SpectraMax M5 Multi -Mode Microplate Reader. The procedure was repeated two more times using different batches of cultured Hep G2 cells on different days. […]

[3] = UV–vis spectra determined in CH3CN
[4] = supplement sheet Tabular ε Data, slope of linear equation, unit not given, in L mol⁻¹ cm⁻¹
[5] = supplement sheet Tabular ε Data, unit not given

Compound | ε ([1]; UV–vis in CH3CN, at λmax) [L/mol/cm] | λmax [1, 3] [nm] | ε [1, 4] | λmax [1, 5] | Hep G2 % inhibition [2] [%] | % Inhibition ([2]; Triplicate 1) [%] | % Inhibition ([2]; Triplicate 2) [%] | % Inhibition ([2]; Triplicate 3) [%] | Average % Inhibition [2] [%] | dissolution for ε determination [1] | dissolution for ε determination ([1]; listed as 6OH7Me)
Cc1ccc(C=C2Oc3ccccc3C2=O)cc1 [Compound 1] | 20208 | 382 | 20208 | 382 | 86.27 ± 1.09 | 88.03 | 81.21 | 89.58 |  |  | 
Cc1ccc(/C=C2\Oc3ccc(F)cc3C2=O)cc1 [Compound 2] | 17188 | 394 | 17188 | 394 | 87.01 ± 0.56 | 90.35 | 81.77 | 88.89 |  |  | 
Cc1ccc(/C=C2\Oc3cc(F)ccc3C2=O)cc1 [Compound 3] | 24252 | 370 | 24252 | 370 | 3.52 ± 3.39 | 5.64 | 13.37 | -8.44 |  |  | 
Cc1ccc(/C=C2\Oc3cccc(Cl)c3C2=O)cc1 [Compound 4] | 17129 | 390 | 17129 | 390 |  | 24.72 | 7.19 | 13.49 | 15.13 |  | 
Cc1ccc(/C=C2\Oc3ccc(Cl)cc3C2=O)cc1 [Compound 5] | 16551 | 394 | 16551 | 394 | 72.68 ± 2.77 | 72.62 | 63.25 | 82.18 |  |  | 
Cc1ccc(/C=C2\Oc3cc(Cl)ccc3C2=O)cc1 [Compound 6] | 23187 | 378 | 23187 | 378 | 25.07 ± 18.77 | 19.67 | 34.31 | 21.23 |  |  | 
Cc1ccc(/C=C2\Oc3c(Cl)cccc3C2=O)cc1 [Compound 7] | 17247 | 386 | 17247 | 386 | 3.64 ± 3.64 | 7.01 | -3.78 | 7.69 |  |  | 
Cc1ccc(C=C2Oc3ccc(Br)cc3C2=O)cc1 [Compound 8] | 15112 | 394 | 15112 | 394 | 59.35 ± 1.25 | 65.35 | 37.11 | 75.61 |  |  | 
Cc1ccc(/C=C2\Oc3cc(Br)ccc3C2=O)cc1 [Compound 9] | 22435 | 378 | 22435 | 378 | 75.22 ± 3.84 | 77.38 | 72.50 | 75.78 |  |  | 
Cc1ccc(/C=C2\Oc3c(Br)cccc3C2=O)cc1 [Compound 10] | 22250 | 390 | 22250 | 390 |  | 8.16 | -1.79 | 11.18 | 5.85 |  | 
Cc1ccc(/C=C2\Oc3ccc(C)cc3C2=O)cc1 [Compound 11] | 15470 | 390 | 15470 | 390 | 80.88 ± 1.38 | 79.75 | 75.21 | 87.68 |  |  | 
Cc1ccc(/C=C2\Oc3cc(C)c(C)cc3C2=O)cc1 [Compound 12] | 19522 | 382 | 19522 | 382 | 24.95 ± 2.23 | 30.58 | 22.83 | 21.44 |  |  | 
Cc1ccc(/C=C2\Oc3c(C)cccc3C2=O)cc1 [Compound 13] | 18380 | 386 | 18380 | 386 | 87.54 ± 1.61 | 89.87 | 82.08 | 90.66 |  |  | 
Cc1ccc(/C=C2\Oc3cc(O)ccc3C2=O)cc1 [Compound 14] | 33050 | 338 | 33050 | 338 | 66.79 ± 3.04 | 60.23 | 53.07 | 87.07 |  |  | 
Cc1ccc(/C=C2\Oc3cccc(O)c3C2=O)cc1 [Compound 15] | 22664 | 390 | 22664 | 390 | 54.04 ± 4.65 | 62.56 | 40.66 | 58.91 |  |  | 
Cc1ccc(C=C2Oc3cc(O)cc(C)c3C2=O)cc1 [Compound 16] | 30445 | 338 | 30445 | 338 | 67.76 ± 6.06 | 77.36 | 54.17 | 71.74 |  |  | 
Cc1ccc(/C=C2\Oc3c(ccc(O)c3C)C2=O)cc1 [Compound 17] |  | 336 |  | 336 | 78.58 ± 7.11 | 77.81 | 74.71 | 83.21 |  | will not dissolve completely | will not dissolve
O=C([O-])C1=NN(c2ccc(S(=O)(=O)[O-])cc2)C(=O)C1N=Nc1ccc(S(=O)(=O)[O-])cc1.[Na+].[Na+].[Na+] (stereo not drawn) [tartrazine, reference compound] |  |  |  |  | 6.81 | 14.72 | 3.80 | 1.93 |  |  | 
Alizarin Y [reference compound] |  |  |  |  | -54.45 | -50.46 | -60.58 | -52.30 |  |  | 
